Experimental data as given in ChEMBL document CHEMBL1201862, “PubChem BioAssay data set” (2004).
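1) Cells in 96-well plates. 2) Compound, 48 h, 5 concentrations. 3) Linear interpolation between surrounding doses. 4) Unreached endpoint = highest concentration. GI50 marks 50% less growth.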 The source made the active and inactive calls. Cut-off read from the data, not from the text of the source: active = GI50 up to about 1.1 µM and inactive = higher.

Legend:
Experiment in all cases: inhibition of tumour cell growth, NCI panel, 48 h
SNB-19 = tested on: SNB-19
UACC-257 = tested on: UACC-257
CAKI-1 = tested on: CAKI-1
HOP-62 = tested on: HOP-62
HCT-15 = tested on: HCT-15
MDA-MB-231 = tested on: MDA-MB-231
OVCAR-4 = tested on: OVCAR-4
MCF7 = tested on: MCF7
SK-MEL-28 = tested on: SK-MEL-28
Hs-578T = tested on: Hs-578T
RPMI-8226 = tested on: RPMI-8226
MDA-MB-435 = tested on: MDA-MB-435
SF-268 = tested on: SF-268
UO-31 = tested on: UO-31
M14 = tested on: M14
BT-549 = tested on: BT-549
HCT-116 = tested on: HCT-116
786-0 = tested on: 786-0
A498 = tested on: A498

Structure (SMILES) | GI50 (SNB-19) | GI50 (UACC-257) | GI50 (CAKI-1) | GI50 (HOP-62) | GI50 (HCT-15) [µM] | GI50 (MDA-MB-231) | GI50 (OVCAR-4) | GI50 (MCF7) | GI50 (SK-MEL-28) | GI50 (Hs-578T) | GI50 (RPMI-8226) | GI50 (MDA-MB-435) | GI50 (SF-268) | GI50 (UO-31) | GI50 (M14) | GI50 (BT-549) | GI50 (HCT-116) | GI50 (786-0) | GI50 (A498)
COc1cccc(C(=O)O[C@H]2[C@@H]3[C@]4(OC(C)=O)CO[C@@H]4C[C@H](O)[C@@]3(C)C(=O)[C@H](OC(C)=O)C3=C(C)[C@@H](OC(=O)[C@H](O)[C@@H](NC(=O)OC(C)(C)C)c4ccco4)C[C@]2(O)C3(C)C)c1 | 0.133 µM (active) | 21.3 µM (inactive) | < 0.00375 µM (active) | < 0.00375 µM (active) | < 0.00375 | < 0.00375 µM (active) | 6.32 µM (inactive) | < 0.00375 µM (active) | 3.82 µM (inactive) | < 0.00375 µM (active) | < 0.00375 µM (active) | < 0.00375 µM (active) | < 0.00375 µM (active) | < 0.00375 µM (active) | < 0.00375 µM (active) | 0.0556 µM (active) | < 0.00375 µM (active) | 0.00522 µM (active) | 
Cc1c2c3ccccc3nc-2n(C)c2ccccc12 | 5.35 µM (inactive) | 2.11 µM (inactive) |  | 3.78 µM (inactive) | 0.548 |  |  | 1.41 µM (inactive) | 3.42 µM (inactive) | 4.8 µM (inactive) | 2.7 µM (inactive) | 2.9 µM (inactive) | 3.83 µM (inactive) | 1.79 µM (inactive) | 3.48 µM (inactive) | 3.71 µM (inactive) | 0.495 µM (active) | 2.02 µM (inactive) | 
C#CCOCC12C=CC(O1)C1COC(=O)C12 (centres undefined) | > 100 µM (inactive) | > 100 µM (inactive) | > 100 µM (inactive) | > 100 µM (inactive) | > 100 | > 100 µM (inactive) | > 100 µM (inactive) |  | > 100 µM (inactive) | > 100 µM (inactive) | > 100 µM (inactive) | > 100 µM (inactive) | > 100 µM (inactive) | > 100 µM (inactive) | > 100 µM (inactive) | > 100 µM (inactive) | > 100 µM (inactive) | > 100 µM (inactive) | > 100 µM (inactive)
Clc1cccc(-c2nc3cccc4c3n2Cc2ncccc2-4)c1 | 23.9 µM (inactive) | > 100 µM (inactive) | 8.02 µM (inactive) | 36.1 µM (inactive) | > 100 | 94.2 µM (inactive) | 36 µM (inactive) | > 100 µM (inactive) | > 100 µM (inactive) |  |  | > 100 µM (inactive) | 32.8 µM (inactive) |  | > 100 µM (inactive) | > 100 µM (inactive) | > 100 µM (inactive) | 17.6 µM (inactive) | > 100 µM (inactive)
Clc1ccc(Nc2nnc(CCCCCCCCc3nnc(Nc4ccc(Cl)cc4)o3)o2)cc1 | 26.3 µM (inactive) | 37.4 µM (inactive) | 38.3 µM (inactive) | 37.9 µM (inactive) | 32.6 | 44.2 µM (inactive) | 51.6 µM (inactive) | 39 µM (inactive) | 48.6 µM (inactive) |  | 21.6 µM (inactive) | 42.7 µM (inactive) |  | 36.8 µM (inactive) | 36 µM (inactive) | 31.9 µM (inactive) | 17.3 µM (inactive) | 24.5 µM (inactive) | 37.1 µM (inactive)
CC1(C)OC(=O)C(Cc2ccccc2)(Cc2ccccc2)C(=O)O1 | > 10 µM (inactive) | > 100 µM (inactive) | > 100 µM (inactive) | > 100 µM (inactive) | > 100 | > 100 µM (inactive) | > 100 µM (inactive) | > 100 µM (inactive) | > 100 µM (inactive) | > 100 µM (inactive) |  |  | > 100 µM (inactive) | > 100 µM (inactive) | > 100 µM (inactive) | > 100 µM (inactive) | > 100 µM (inactive) | > 100 µM (inactive) | 
Oc1cc2c(cc1C(c1ccc3c(c1)OCO3)N1CCN(C(c3ccc4c(c3)OCO4)c3cc4c(cc3O)OCO4)CC1)OCO2 (centres undefined) | 20.4 µM (inactive) | 17.6 µM (inactive) | 20.5 µM (inactive) | 21.7 µM (inactive) | 7.98 | 15.7 µM (inactive) | 4.36 µM (inactive) | 27.2 µM (inactive) | 2.83 µM (inactive) | 11.9 µM (inactive) |  | 17.7 µM (inactive) | 18 µM (inactive) | 12 µM (inactive) | 14.4 µM (inactive) | 13.7 µM (inactive) | 15.7 µM (inactive) | 13.1 µM (inactive) | 
ClCc1c(-c2ccccc2)nn(-c2ccccc2)c1CCl | 18.6 µM (inactive) | 15.3 µM (inactive) | 1.83 µM (inactive) |  | 12.2 | > 10 µM (inactive) | 1.65 µM (inactive) | 8.2 µM (inactive) | 15.6 µM (inactive) |  | 2.26 µM (inactive) | 1.78 µM (inactive) | 16.6 µM (inactive) | 20.1 µM (inactive) | 15.4 µM (inactive) | > 10 µM (inactive) | 8.09 µM (inactive) | 9.59 µM (inactive) | 
CN1C(=O)c2c(c3c4ccccc4n(C)c3c3c2c2ccccc2n3C)C1=O | > 100 µM (inactive) | > 100 µM (inactive) | > 100 µM (inactive) | > 100 µM (inactive) | > 100 | > 100 µM (inactive) | > 100 µM (inactive) | > 100 µM (inactive) | > 100 µM (inactive) |  | > 100 µM (inactive) | > 100 µM (inactive) |  | > 100 µM (inactive) | > 100 µM (inactive) | > 100 µM (inactive) | > 100 µM (inactive) | > 100 µM (inactive) | > 100 µM (inactive)
CN(C)C1(c2cc3ccccc3s2)CCCCC1 | 49 µM (inactive) | 28.1 µM (inactive) | 61.5 µM (inactive) | 58.1 µM (inactive) | 37.4 | 65.6 µM (inactive) | 47.2 µM (inactive) | 48.6 µM (inactive) |  |  |  | 35.7 µM (inactive) | 18.8 µM (inactive) | 30.9 µM (inactive) | 17.5 µM (inactive) | 64.9 µM (inactive) | 33.9 µM (inactive) | 22.2 µM (inactive) | 32.8 µM (inactive)
CCOC(=O)c1sc2nc(SC)nc(Nc3ccc4c(c3)OCO4)c2c1N | 54.7 µM (inactive) | > 100 µM (inactive) | > 100 µM (inactive) | 28.8 µM (inactive) | 0.706 | 26 µM (inactive) | 37.7 µM (inactive) | 30.6 µM (inactive) | 1.91 µM (inactive) |  | 53.8 µM (inactive) | > 100 µM (inactive) |  | 71.3 µM (inactive) | 41.9 µM (inactive) | 33.7 µM (inactive) | > 100 µM (inactive) | 21.6 µM (inactive) | 28.4 µM (inactive)
CC1(C)CC(=O)C(Cc2ccccc2)(Cc2ccccc2)C(=O)C1 | > 100 µM (inactive) | > 100 µM (inactive) | > 100 µM (inactive) | > 100 µM (inactive) | > 100 | > 100 µM (inactive) | > 100 µM (inactive) | > 100 µM (inactive) | > 100 µM (inactive) | 29.2 µM (inactive) |  |  | > 100 µM (inactive) | > 100 µM (inactive) | > 100 µM (inactive) | > 100 µM (inactive) | > 100 µM (inactive) | > 100 µM (inactive) | 
